ChEMBL document CHEMBL1201862, “PubChem BioAssay data set” (2004)
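Each compound was tested at five concentrations against cells in 96-well plates for 48 hours. GI50 is the concentration that inhibits growth by half.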 The source made the active and inactive calls. Rule as the data show it: active = GI50 up to about 1.1 µM and inactive = higher.

Tests used:
Test in all cases: NCI anticancer screen, dose series, 48 h
A498 = system: A498
BT-549 = system: BT-549
DU-145 = system: DU-145
HCT-116 = system: HCT-116
HOP-62 = system: HOP-62
HOP-92 = system: HOP-92
Hs-578T = system: Hs-578T
K562 = system: K562
KM12 = system: KM12
LOX IMVI = system: LOX IMVI
M14 = system: M14
NCI-H23 = system: NCI-H23
NCI-H522 = system: NCI-H522
RXF 393 = system: RXF 393
SF-295 = system: SF-295
SK-MEL-5 = system: SK-MEL-5
SN12C = system: SN12C
T47D = system: T47D
U-251 = system: U-251
UACC-257 = system: UACC-257

Row | Compound | GI50 (A498) | GI50 (BT-549) | GI50 (DU-145) | GI50 (HCT-116) | GI50 (HOP-62) | GI50 (HOP-92) | GI50 (Hs-578T) | GI50 (K562) | GI50 (KM12) | GI50 (LOX IMVI) | GI50 (M14) | GI50 (NCI-H23) | GI50 (NCI-H522) | GI50 (RXF 393) | GI50 (SF-295) | GI50 (SK-MEL-5) | GI50 (SN12C) | GI50 (T47D) | GI50 (U-251) | GI50 (UACC-257)
1 | CSc1ccc(NC(=O)C2CCCCC2C(=O)O)cc1 (stereo not given) | > 100 µM (inactive) | > 100 µM (inactive) | > 100 µM (inactive) | > 100 µM (inactive) | > 100 µM (inactive) | > 100 µM (inactive) | > 100 µM (inactive) | > 100 µM (inactive) | > 100 µM (inactive) | > 100 µM (inactive) | > 100 µM (inactive) | > 100 µM (inactive) | > 100 µM (inactive) | > 100 µM (inactive) | > 100 µM (inactive) | > 100 µM (inactive) | > 100 µM (inactive) | > 100 µM (inactive) | > 100 µM (inactive) | > 100 µM (inactive)
2 | CC(=O)c1sc2c(c1OC(=O)c1ccccc1)c(=O)n(-c1ccccc1)c(=S)n2-c1ccccc1 | 2.49 µM (inactive) | > 10 µM (inactive) | 28.1 µM (inactive) | 13.4 µM (inactive) | 15 µM (inactive) | 1.69 µM (inactive) | 3.74 µM (inactive) | 17.4 µM (inactive) | 33.1 µM (inactive) | 2.26 µM (inactive) | 3.4 µM (inactive) | 27.3 µM (inactive) | 28.6 µM (inactive) | 2.86 µM (inactive) | 2.48 µM (inactive) | 5.62 µM (inactive) | 5.78 µM (inactive) | 9.23 µM (inactive) | 3.94 µM (inactive) | 4.38 µM (inactive)
3 | C=CCNC1=C2C[C@@H](C)C[C@@H](OC)C(OC(=O)CCCN(C)C)[C@H](C)/C=C(\C)[C@@H](OC(N)=O)[C@H](OC)/C=C\C=C(/C)C(=O)NC(=CC1=O)C2=O (stereo not given in full) | 13.8 µM (inactive) | 13.4 µM (inactive) | 5.02 µM (inactive) | 7.13 µM (inactive) | 9.95 µM (inactive) | 17.7 µM (inactive) | 17.5 µM (inactive) | 4.06 µM (inactive) | 4.07 µM (inactive) | 10.1 µM (inactive) | 8.53 µM (inactive) | 6.84 µM (inactive) | 8.07 µM (inactive) | 3.98 µM (inactive) | 7.57 µM (inactive) | 2.51 µM (inactive) | 2.42 µM (inactive) | 11.5 µM (inactive) | 10.6 µM (inactive) | 12.9 µM (inactive)
4 | Nc1nc(Cl)cc(Nc2cc(Cl)cc(Cl)c2)n1 | 25.9 µM (inactive) | 22.1 µM (inactive) | 26.1 µM (inactive) | 17.5 µM (inactive) | 29.2 µM (inactive) | 21.5 µM (inactive) | 16.8 µM (inactive) | 30.8 µM (inactive) | 20.9 µM (inactive) | 18.1 µM (inactive) | 19.3 µM (inactive) | 23.1 µM (inactive) | 10.9 µM (inactive) | 21.1 µM (inactive) | 21.1 µM (inactive) | 19.8 µM (inactive) | 22 µM (inactive) | 37 µM (inactive) | 21.2 µM (inactive) | 18.5 µM (inactive)
5 | CC(C)=CCC/C(C)=C/Cc1cc(/C=C/c2cc(O)c(CC=C(C)C)c(O)c2)cc(O)c1O [MAPPAIN] | 6.56 µM (inactive) | 3.29 µM (inactive) | 13.7 µM (inactive) | 3.37 µM (inactive) | 11.4 µM (inactive) | 3.93 µM (inactive) | 10.8 µM (inactive) | 2.49 µM (inactive) | 4.29 µM (inactive) | 2.31 µM (inactive) | 4.26 µM (inactive) | 3.31 µM (inactive) | 0.141 µM (active) | 2.46 µM (inactive) | 4.65 µM (inactive) | 2.12 µM (inactive) | 1.95 µM (inactive) | 1.84 µM (inactive) | 2.18 µM (inactive) | 1.67 µM (inactive)
